This note sets out measurements from patent US9850245B2 (Merck Sharp & Dohme Corp., priority 2014, dated 2017).

Broadly, the IC50 is the concentration at which inhibition is half-maximal. A higher IC50 goes with weaker potency in that assay.

ROMK, sequence (P48048 whole entry): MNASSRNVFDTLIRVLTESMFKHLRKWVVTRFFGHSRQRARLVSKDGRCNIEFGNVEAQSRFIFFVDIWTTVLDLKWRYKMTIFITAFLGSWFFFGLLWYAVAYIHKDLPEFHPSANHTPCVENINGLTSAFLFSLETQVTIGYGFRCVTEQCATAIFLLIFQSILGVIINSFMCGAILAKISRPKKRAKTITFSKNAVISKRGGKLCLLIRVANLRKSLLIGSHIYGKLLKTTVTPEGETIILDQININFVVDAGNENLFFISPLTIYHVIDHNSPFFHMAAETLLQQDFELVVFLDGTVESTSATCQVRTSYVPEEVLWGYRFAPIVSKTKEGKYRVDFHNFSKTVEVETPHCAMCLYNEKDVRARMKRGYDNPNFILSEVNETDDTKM

This experiment concerns the target ROMK (Homo sapiens (Human), UniProt P48048). The experiment in a line: Thallium Flux Assay. The class given is cell-based. On the procedure: A Thallium Flux Assay was performed on the compounds of the Examples. This assay has been described previously; see, e.g., PCT Published Application WO 2013/062900.
Turning to `CC1=C(N2CCNC3(CCN(CC(O)c4ccc(-n5cnnn5)cc4)CC3)C2=O)COC1=O` (single isomer, unassigned) [Example 5B, 9-(2-(4-(1H-tetrazol-1-yl)phenyl)-2-hydroxyethyl)-4-(4-methyl-5-oxo-2,5-dihydrofuran-3-yl)-1,4,9-triazaspiro[5.5]undecan-5-one], half-maximal inhibition (IC50) required 0.0368 µM. In turn, `CC1=C(N2CCNC3(CCN(CC(O)c4ccc(-n5cnnn5)nc4C)CC3)C2=O)COC1=O` (single isomer, unassigned) [Example 2B, 9-(2-hydroxy-2-(2-methyl-6-(1H-tetrazol-1-yl)pyridin-3-yl)ethyl)-4-(4-methyl-5-oxo-2,5-dihydrofuran-3-yl)-1,4,9-triazaspiro[5.5]undecan-5-one] returned a concentration for half-maximal inhibition (IC50) of 0.0562 µM.

Compound `CC1=C(N2C(=O)C3(CCN(C[C@H](O)c4ccc5c(c4C)COC5=O)CC3)OCC2C)COC1=O` (single isomer, unassigned) [Example 11] registered an IC50 of 0.267 µM.

With `O=C1OCC(N2CCOC3(CCN(C[C@H](O)c4ccc(-n5cnnn5)nc4)CC3)C2)=C1C1CC1` [Example 28A, (R)-4-(9-(2-(6-(1H-tetrazol-1-yl)pyridin-3-yl)-2-hydroxyethyl)-1-oxa-4,9-diazaspiro[5.5]undecan-4-yl)-3-cyclopropylfuran-2(5H)-one], inhibition was half-maximal at 0.224 µM (IC50).

`CC1=C(N2CCNC3(CCN(CC(O)c4cnc(-n5cnnn5)cn4)CC3)C2=O)COC1=O` (single isomer, unassigned) [Example 3A, 9-(2-(5-(1H-tetrazol-1-yl)pyrazin-2-yl)-2-hydroxyethyl)-4-(4-methyl-5-oxo-2,5-dihydrofuran-3-yl)-1,4,9-triazaspiro[5.5]undecan-5-one] showed an IC50 of 0.114 µM. Consider `O=C1C=C(N2CCOC3(CCN(C[C@H](O)c4ccc(-n5cnnn5)nc4)CC3)C2=O)CO1` [Example 12, (R)-9-(2-(6-(1H-tetrazol-1-yl)pyridin-3-yl)-2-hydroxyethyl)-4-(5-oxo-2,5-dihydrofuran-3-yl)-1-oxa-4,9-diazaspiro[5.5]undecan-5-one], for which the half-maximal inhibitory concentration (IC50) came to 0.161 µM. With `Cc1nc(-n2cnnn2)ccc1C(O)CN1CCC2(CC1)CN(C1=CC(=O)OC1)C(=O)O2` (single isomer, unassigned) [Example 17, 8-(2-hydroxy-2-(2-methyl-6-(1H-tetrazol-1-yl)pyridin-3-yl)ethyl)-3-(5-oxo-2,5-dihydrofuran-3-yl)-1-oxa-3,8-diazaspiro[4.5]decan-2-one], the IC50 was 0.468 µM. The figure for `CC1=C(N2CC(F)(F)OC3(CCN(C[C@@H](O)c4ccc(-n5cnnn5)nc4)CC3)C2)COC1=O` [Example 7B, (S)-4-(9-(2-(6-(1H-tetrazol-1-yl)pyridin-3-yl)-2-hydroxyethyl)-2,2-difluoro-1-oxa-4,9-diazaspiro[5.5]undecan-4-yl)-3-methylfuran-2(5H)-one] is 0.688 µM. With `CC1=C(N2CCNC3(CCN(C[C@@H](O)c4ccc(-n5cnnn5)nc4)CC3)C2=O)COC1=O` [Example 4B, (S)-9-(2-(6-(1H-tetrazol-1-yl)pyridin-3-yl)-2-hydroxyethyl)-4-(4-methyl-5-oxo-2,5-dihydrofuran-3-yl)-1,4,9-triazaspiro[5.5]undecan-5-one], the 50% inhibitory concentration (IC50) amounted to 0.0631 µM. The figure for `CC1=C(N2CCOC3(CCN(C[C@H](O)c4ccc5c(c4C)COC5=O)CC3)CC2)COC1=O` (single isomer, unassigned) [Example 41] is 0.0322 µM. The compound `CC1=C(N2CCCOC3(CCN(C[C@H](O)c4ccc5c(c4C)COC5=O)CC3)C2=O)COC1=O` [Example 37, (R)-3-(2-hydroxy-2-(4-methyl-1-oxo-1,3-dihydroisobenzofuran-5-yl)ethyl)-11-(4-methyl-5-oxo-2,5-dihydrofuran-3-yl)-7-oxa-3,11-diazaspiro[5.6]dodecan-12-one] came in with an IC50 of 0.285 µM. In turn, `Cc1c([C@@H](O)CN2CCC3(CC2)OCC(C)N(C2=CC(=O)OC2)C3=O)ccc2c1COC2=O` (single isomer, unassigned) [Example 14] had a concentration for half-maximal inhibition (IC50) of 0.264 µM. The IC50 values of the last two compounds are within 1.5-fold of each other. In the case of `CC1=C(N2CCOC3(CCN(CC(O)c4cnc(-n5cnnn5)cn4)CC3)C2=O)COC1=O` (single isomer, unassigned) [Example 18B, 9-(2-(5-(1H-tetrazol-1-yl)pyrazin-2-yl)-2-hydroxyethyl)-4-(4-methyl-5-oxo-2,5-dihydrofuran-3-yl)-1-oxa-4,9-diazaspiro[5.5]undecan-5-one], the 50% inhibitory concentration (IC50) was found to be 0.11 µM. This IC50 is about 2.4-fold lower than that of the compound before. Consider `CC1COC2(CCN(C[C@H](O)c3ccc(-n4cnnn4)nc3)CC2)C(=O)N1C1=CC(=O)OC1` (single isomer, unassigned) [Example 13B], for which it took 0.415 µM to reach half-maximal inhibition (IC50). This IC50 lies about 3.8-fold higher than the previous one. `CC1=C(N2CCN(C)C3(CCN(CC(O)c4ccc(-n5cnnn5)nc4C)CC3)C2=O)COC1=O` (single isomer, unassigned) [Example 35B, 9-(2-hydroxy-2-(2-methyl-6-(1H-tetrazol-1-yl)pyridin-3-yl)ethyl)-1-methyl-4-(4-methyl-5-oxo-2,5-dihydrofuran-3-yl)-1,4,9-triazaspiro[5.5]undecan-5-one]: it took 0.144 µM to reach half-maximal inhibition (IC50). `CC1=C(N2CCNC3(CCN(CC(O)c4cnc(-n5cnnn5)cn4)CC3)C2=O)COC1=O` (single isomer, unassigned) [Example 3B, 9-(2-(5-(1H-tetrazol-1-yl)pyrazin-2-yl)-2-hydroxyethyl)-4-(4-methyl-5-oxo-2,5-dihydrofuran-3-yl)-1,4,9-triazaspiro[5.5]undecan-5-one] came in with a 50% inhibitory concentration (IC50) of 0.142 µM. For the compound `CC1=C(N2CCNC3(CCN(CC(O)c4ccc(-n5cnnn5)cc4)CC3)C2=O)COC1=O` (single isomer, unassigned) [Example 5A, 9-(2-(4-(1H-tetrazol-1-yl)phenyl)-2-hydroxyethyl)-4-(4-methyl-5-oxo-2,5-dihydrofuran-3-yl)-1,4,9-triazaspiro[5.5]undecan-5-one], the half-maximal inhibitory concentration (IC50) amounted to 0.0425 µM. Take `COc1cc(-n2cnnn2)ccc1C(O)CN1CCC2(CC1)CN(C1=C(C)C(=O)OC1)CCO2` (single isomer, unassigned) [Example 33B, 4-(9-(2-hydroxy-2-(2-methoxy-4-(1H-tetrazol-1-yl)phenyl)ethyl)-1-oxa-4,9-diazaspiro[5.5]undecan-4-yl)-3-methylfuran-2(5H)-one]: half-maximal inhibition (IC50) required 0.0919 µM. Consider `CC1=C(N2CCOC3(CCN(CC(O)c4ccc(-n5cnnn5)cn4)CC3)C2=O)COC1=O` (single isomer, unassigned) [Example 43, 9-(2-(5-(1H-tetrazol-1-yl)pyridin-2-yl)-2-hydroxyethyl)-4-(4-methyl-5-oxo-2,5-dihydrofuran-3-yl)-1-oxa-4,9-diazaspiro[5.5]undecan-5-one], for which it took 0.0372 µM to reach half-maximal inhibition (IC50). `CC1=C(N2C(=O)C3(CCN(C[C@@H](O)c4ccc(-n5cnnn5)nc4)CC3)OCC2C)COC1=O` (single isomer, unassigned) [Example 10C]: the IC50 turned out to be 0.317 µM. `CC1=C(N2CCOC3(CCN(C[C@@H](F)c4ccc(-n5cnnn5)nc4)CC3)C2=O)COC1=O` [Example 56, (S)-9-(2-(6-(1H-tetrazol-1-yl)pyridin-3-yl)-2-fluoroethyl)-4-(4-methyl-5-oxo-2,5-dihydrofuran-3-yl)-1-oxa-4,9-diazaspiro[5.5]undecan-5-one] came in with an IC50 of 0.049 µM.

The compound `CC1=C(N2CCOC3(CCN(C[C@H](F)c4ccc5c(c4C)COC5=O)CC3)C2=O)COC1=O` [Example 57, (R)-9-(2-fluoro-2-(4-methyl-1-oxo-1,3-dihydroisobenzofuran-5-yl)ethyl)-4-(4-methyl-5-oxo-2,5-dihydrofuran-3-yl)-1-oxa-4,9-diazaspiro[5.5]undecan-5-one] displayed an IC50 of 0.218 µM.
